Like-named read-outs stand apart in the source and are kept apart here.
Columns and labels:
[1] = test system: IL-1β cytokine output from THP-1s; assay: THP-1 AlphaLISA IL-1β cytokine inhibition assay; format: cell-based; settings: for IC50: Homo sapiens; for IL-1β lowering, result in words: THP-1 IL-1β assay
Procedure, shortened: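 THP-1 cells differentiated with PMA for 72 h, pre-incubated with compound 30 min, then LPS-primed 24 h and Nigericin-stimulated 1 h (37° C./5% CO2). Supernatant IL-1β measured by AlphaLISA; percentage inhibition normalised to +LPS (high) and −LPS (low) plate controls.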

[2] = test system: IL-6 cytokine output from THP-1s; assay: THP-1 AlphaLISA IL-6 cytokine inhibition assay; format: cell-based; settings: Homo sapiens, LPS then nigericin
Description: The cytokine inhibition profiles of compounds of formula (I) were determined in a differentiated THP-1 cell assay. All assays were performed in RPMI-1640 growth medium (Gibco), supplemented with 10% fetal bovine serum (FBS; Gibco), 1% penicillin-streptomycin and 1% sodium pyruvate unless specified otherwise. The IL-1β cytokine inhibition assay was run in a background of differentiated THP-1 cells as described below. All reagents described were from Sigma-Aldrich unless specified otherwise. Compounds were prepared as 10 mM DMSO stocks.
THP-1 cells were expanded as a suspension up to 80% confluence in appropriate growth medium. Cells were harvested, suspended, and treated with an appropriate concentration of phorbol 12-myristate 13-acetate (PMA) over a 72 hr period (37° C./5% CO2).
Following 72 hrs of THP-1 cell incubation, cellular medium was removed and replaced with fresh growth media containing 1% of FBS. Working concentrations of compounds were prepared separately in 10% FBS treated growth medium and pre-incubated with the cells for 30 minutes (37° C./5% CO2). Following the 30 minute compound pre-incubation, THP-1s were treated with an appropriate concentration of LPS and the cells were subsequently incubated for a 24 hr period (37° C./5% CO2). An appropriate final concentration of Nigericin was then dispensed into the THP-1 plates and incubated for 1 hour (37° C./5% CO2) before THP-1 supernatants were harvested and collected in separate polypropylene 96-well holding plates.
Reagents from an IL-1β and IL-6 commercial kit (Perkin Elmer) were prepared and run according to the manufacturer's instructions. Subsequently, fluorescence signal detection in a microplate reader was measured (EnVision® Multilabel Reader, Perkin Elmer).
Percentage inhibition was calculated per cytokine by normalising the sample data to the high and low controls used within each plate (+/− LPS respectively).

[3] = test system: NRF2 (nuclear factor erythroid 2-related factor 2); assay: NRF2 +/-GSH activation assay (DiscoverX PathHunter NRF2 translocation kit, U2OS cells); format: cell-based
Procedure, shortened: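 U2OS PathHunter eXpress cells, 24 h post-plating, treated with compound ±GSH (+GSH arm: 30 min compound–GSH pre-incubation, 6 mM working GSH), then 6 h at 37 °C. NRF2 nuclear translocation read by enzyme-fragment-complementation chemiluminescence; % activation normalised to DMF high and untreated low controls.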

[4] = Hepatocyte stability assay, mouse; format: in vitro ADME; settings: mouse, hepatocytes; for hepatocyte CLint at 10 μM: Hepatocyte stability Clint; for half-life at 10 μM: Hepatocyte stability T½
Procedure, shortened: (§1)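 Cells and buffer-only plates are preincubated 10 min at 37° C; 10 μM test compound is then added to hepatocytes (0.5×10^6 cells/mL) and sampled to 60 min. Aliquots are crashed into acetonitrile, spun, and measured by LC-MS/MS to calculate intrinsic clearance from the decline of parent.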

[5] = Hepatocyte stability assay, human; format: in vitro ADME; settings: human, hepatocytes; for hepatocyte CLint at 10 μM: Hepatocyte stability Clint; for half-life at 10 μM: Hepatocyte stability T½
Procedure, shortened: as §1

[6] = THP-1, differentiated THP-1 cells, LPS then nigericin
[7] = THP-1, differentiated THP-1 cells
[8] = +GSH, 30 minute compound-GSH pre-incubation, read-out: NRF2 activation +GSH EC50
[9] = +GSH, normalised to DMF high control
[10] = −GSH, U2OS PathHunter cells, 6 hours compound treatment, read-out: NRF2 activation −GSH EC50
[11] = −GSH, normalised to DMF high control

Structure (SMILES) | IC50 [1, 6] | IC50 [2, 7] | EC50 [3, 8] | NRF2 activation +GSH Emax [3, 9] | EC50 [3, 10] | NRF2 activation −GSH Emax [3, 11] | other results
C=C(Cc1nc(Cc2ccc(CC(C)(C)C)cc2)no1)C(=O)O [Example 69, 2-((3-(4-neopentylbenzyl)-1,2,4-oxadiazol-5-yl)methyl)acrylic acid] | 48.6 µM | 10.1 µM |  |  |  |  | 
C/C(=C\c1nc(C2(c3ccc(SC(F)(F)F)cc3)CC2)no1)C(=O)O [Example 170] | > 31.6 µM |  | 34.9 µM | 96.5% | 38.7 µM | 177% | IC50 ([1]; THP-1, Table 3, head to head comparison of exo vs endo double bond compounds): > 31.6 µM; IC50 ([2]; differentiated THP-1 cells): 21 µM; EC50 ([3]; −GSH, Table 5 exo vs endo comparison, read-out: −GSH EC50): 38.7 µM; −GSH Emax ([3]; −GSH, normalised to DMF high control, Table 5 exo vs endo comparison): 177%
C=C(Cc1nc(C2(c3ccc(OC)c(Cl)c3)CC2)no1)C(=O)O [Example 140, 2-((3-(1-(3-chloro-4-methoxyphenyl)cyclopropyl)-1,2,4-oxadiazol-5-yl)methyl)acrylic acid] | 29.5 µM |  |  |  |  |  | IC50 ([2]; differentiated THP-1 cells): > 100 µM
C=C(Cc1nc(-c2ccc(CCC(F)(F)F)cc2)no1)C(=O)O [Example 73, 2-((3-(4-(3,3,3-trifluoropropyl)phenyl)-1,2,4-oxadiazol-5-yl)methyl)acrylic acid] | > 100 µM | 10.4 µM |  |  |  |  | IL-1β lowering, result in words [1]: not effective
C=C(C(=O)O)C(C)c1nc(C2(c3ccc(C(F)(F)F)cc3)CC2)no1 (stereo not shown) [Example 174, 2-methylene-3-(3-(1-(4-(trifluoromethyl)phenyl)cyclopropyl)-1,2,4-oxadiazol-5-yl)butanoic acid] | 4.2 µM |  | > 100 µM | 1.8% | > 100 µM | 24% | IC50 ([2]; differentiated THP-1 cells): > 100 µM
C=C(C(=O)O)C1(c2nc(C3(c4ccc(C(F)(F)F)cc4)CC3)no2)CC1 [Example 156, 2-(1-(3-(1-(4-(trifluoromethyl)phenyl)cyclopropyl)-1,2,4-oxadiazol-5-yl)cyclopropyl)acrylic acid] | 5.3 µM |  |  | −16.4% | > 100 µM | 0% | IC50 ([2]; differentiated THP-1 cells): 55.9 µM
C=C(Cc1nc(CCCCCCCC(F)F)no1)C(=O)O [Example 58, 2-((3-(8,8-difluorooctyl)-1,2,4-oxadiazol-5-yl)methyl)acrylic acid] | 36.9 µM | 16 µM | 30.6 µM | 105% | 26.4 µM | 149% | 
C=C(Cc1nc(CC2CCCCC2)no1)C(=O)O [Example 32, 2-((3-(cyclohexylmethyl)-1,2,4-oxadiazol-5-yl)methyl)acrylic acid] | > 100 µM | > 100 µM | > 100 µM | 35% | 50.1 µM | 46% | IL-1β lowering, result in words [1]: not effective
C=C(Cc1nc(-c2ccc(CCCC)cc2)co1)C(=O)O [Example 101, 2-((4-(4-butylphenyl)oxazol-2-yl)methyl)acrylic acid] | 52.4 µM | 4.6 µM |  |  |  |  | 
C=C(Cc1nc(-c2ccc(C(F)(F)CC)cc2)no1)C(=O)O [Example 71, 2-((3-(4-(1,1-difluoropropyl)phenyl)-1,2,4-oxadiazol-5-yl)methyl)acrylic acid] | 54.9 µM | 8.3 µM | 37.1 µM | 146% | 28.8 µM | 178% | 
C=C(Cc1nc(-c2ccc(CCC3CC3)cc2)no1)C(=O)O [Example 76, 2-((3-(4-(2-cyclopropylethyl)phenyl)-1,2,4-oxadiazol-5-yl)methyl)acrylic acid] | 28.2 µM | 5.1 µM |  |  |  |  | 
C=C(Cc1nc(C2(c3ccc(OC(F)F)cc3)CC2)no1)C(=O)O [Example 78, 2-((3-(1-(4-(difluoromethoxy)phenyl)cyclopropyl)-1,2,4-oxadiazol-5-yl)methyl)acrylic acid] | 24.3 µM | > 100 µM |  |  |  |  | 
C=C(Cc1nc(C2(c3ccc(OCCCC)cc3)CC2)no1)C(=O)O [Example 80, 2-((3-(1-(4-butoxyphenyl)cyclopropyl)-1,2,4-oxadiazol-5-yl)methyl)acrylic acid] | 37.2 µM | 9.6 µM |  |  |  |  | 
C=C(Cc1nc(C2(c3cc(Cl)c(F)c(Cl)c3)CC2)no1)C(=O)O [Example 133, 2-((3-(1-(3,5-dichloro-4-fluorophenyl)cyclopropyl)-1,2,4-oxadiazol-5-yl)methyl)acrylic acid] | 1.6 µM |  | 4.2 µM | 281% | 3.5 µM | 234% | hepatocyte CLint at 10 μM [4]: 338 µL/min/1e6 cells; half-life at 10 μM [4]: 4 min; hepatocyte CLint at 10 μM [5]: 73 µL/min/1e6 cells; half-life at 10 μM [5]: 19 min
C=C(Cc1nc(-c2ccc(OCCCC(F)(F)F)cc2)no1)C(=O)O [Example 146, 2-((3-(4-(4,4,4-trifluorobutoxy)phenyl)-1,2,4-oxadiazol-5-yl)methyl)acrylic acid] | > 31.6 µM |  | 14.6 µM | 125% | 13.1 µM | 177% | hepatocyte CLint at 10 μM [4]: 194 µL/min/1e6 cells; half-life at 10 μM [4]: 8 min; hepatocyte CLint at 10 μM [5]: 36 µL/min/1e6 cells; half-life at 10 μM [5]: 41 min
C=C(Cc1nc(CCCCCC(C)C)no1)C(=O)O [Example 68, 2-((3-(6-methylheptyl)-1,2,4-oxadiazol-5-yl)methyl)acrylic acid] | 19.5 µM | 5.7 µM |  |  |  |  | 
C=C(Cc1ccccc1Cl)C(=O)O [2-(2-chlorobenzyl)acrylic acid, reference compound] | > 100 µM |  | > 100 µM | 9% | > 100 µM | 2% | hepatocyte CLint at 10 μM [4]: 95 µL/min/1e6 cells; hepatocyte CLint at 10 μM [5]: 21 µL/min/1e6 cells
C=C(Cc1nc(C(C)(C)CCCCC)no1)C(=O)O [Example 12, 2-((3-(2-methylheptan-2-yl)-1,2,4-oxadiazol-5-yl)methyl)acrylic acid] | > 100 µM |  | 61.9 µM | 73% | 53.1 µM | 85% | IL-1β lowering, result in words [1]: not effective; hepatocyte CLint at 10 μM [4]: 15 µL/min/1e6 cells; half-life at 10 μM [4]: 90 min; hepatocyte CLint at 10 μM [5]: 16 µL/min/1e6 cells; half-life at 10 μM [5]: 90 min
